Test results: US20090069300A1, “ISOQUINOLINYL AND ISOINDOLINYL DERIVATIVES AS HISTAMINE-3 ANTAGONISTS” (Wyeth, priority 2007, published 2009)
Where a name gives a salt, the structure may show the parent alone. Read-outs that look alike come from different tables or passages of the source.

Target: T1, Human Histamine H3 Receptor (Homo sapiens, UniProt Q9Y5N1)
T1 construct: expressed in transfected cells; host or cells: HEK293T (stably transfected; membranes prepared from the cells)
Test: Methyl histamine binding in human histamine H3 receptor cell line
Details: read-out: H3 Binding Ki
Protocol: Evaluation of Methyl Histamine Binding in Human Histamine H3 Receptor Cell Line
The affinity of test compounds for the histamine 3 (H3) receptor is evaluated in the following manner. […] Cells are scraped from the plate, transferred to centrifuge tubes, washed one time in PBS by centrifugation in a Sorvall RT7 Plus centrifuge (2000 rpm 10 minutes, 4° C.). The resulting pellets are stored at −80° C. until ready for use. Cells are re-suspended in buffer (50 mM Tris pH=7.5) and placed in a Dounce homogenizer, douncing ten times to homogenize cells. The homogenate is spun down by centrifugation (Sorvall RT7 Plus, 1800 rpm 10 minutes, 4° C.). The supernatant is placed in a Corex tube and spun down by centrifugation (Sorvall RC 5c Plus, 17,000 rpm 20 minutes, 4° C.). The pellet is resuspended in buffer (50 mM Tris, pH 7.5). Protein concentration (ug/ul) is determined using the Micro-BCA Protein Determination. The binding assay is set up in a 96 well microtiter plate in a total volume of 250 uL. Non-specific binding is determined in the presence of 10 uM clobenpropit. The final radioligand concentration is 1 nM. The test compound is serially diluted using the Beckman Biomek2000 to a final approximate range of 100 uM to 100 pM. Membranes are suspended in buffer, homogenized in 2 bursts of ten seconds using a Vitris mechanical homogenizer set at power setting 5. Ten μg of membranes are added to each well. Following a one hour incubation at 30° C., the reaction is terminated by the addition of ice cold buffer and rapid filtration with a Packard Filtermate Harvester through a GF/B filter pre-soaked with 1% PEI for one hour. The plate is dried for one hour at 37° C. and 60 μL Microscint Scintillant is added to each well. The CPM per well is measured on a Packard Top Count NXT. Ki values are determined in nM. […] CPM values are expressed as % specific binding and plotted vs compound concentration. A curve is fitted using a four-parameter logistic fit and the IC50 value is determined. The Ki is calculated from this using the Cheng-Prusoff equation: […]=IC50/1+(L/Kd) where L=concentration of free radioligand used in the assay, and Kd is the dissociation constant of the radioligand for the receptor. L is determined for each experiment by counting an aliquot of the diluted radioligand (corresponding to that added to each well) and the Kd has previously been determined under identical conditions for this cell line/radioligand.

T1 sequence (Q9Y5N1 whole entry): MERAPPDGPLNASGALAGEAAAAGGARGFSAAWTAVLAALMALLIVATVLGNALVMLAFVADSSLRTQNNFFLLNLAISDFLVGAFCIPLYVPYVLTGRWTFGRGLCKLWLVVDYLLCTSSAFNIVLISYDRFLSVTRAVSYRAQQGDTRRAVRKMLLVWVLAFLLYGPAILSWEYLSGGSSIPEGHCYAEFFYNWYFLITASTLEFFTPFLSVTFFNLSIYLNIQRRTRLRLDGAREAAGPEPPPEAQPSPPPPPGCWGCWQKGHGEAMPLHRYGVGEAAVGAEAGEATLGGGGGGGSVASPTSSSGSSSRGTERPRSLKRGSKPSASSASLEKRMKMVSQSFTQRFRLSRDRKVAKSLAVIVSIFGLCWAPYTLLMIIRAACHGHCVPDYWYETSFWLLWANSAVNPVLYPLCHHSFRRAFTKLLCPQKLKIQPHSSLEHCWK

In the case of `COC[C@H](C)NC(=O)c1ccc(-c2ccc3c(c2)CCN(CCN2CCCC2)C3=O)cc1` [Example 126, N-[(1S)-2-methoxy-1-methylethyl]-4-[1-oxo-2-(2-pyrrolidin-1-ylethyl)-1,2,3,4-tetrahydroisoquinolin-6-yl]benzamide], the Ki is reported as < 0.01 µM.

For `O=C(NC1CCC1)c1ccc(-c2ccc3c(c2)CCN(CCN2CCCC2)C3=O)cc1` [Example 63, N-cyclobutyl-4-[1-oxo-2-(2-pyrrolidin-1-ylethyl)-1,2,3,4-tetrahydroisoquinolin-6-yl]benzamide], the Ki was < 0.01 µM.

`C[C@@H]1CCCN1CCN1CCc2cc(Oc3ccc(C#N)nc3)ccc2C1=O` [Example 51, 5-[(2-{2-[(2R)-2-methylpyrrolidin-1-yl]ethyl}-1-oxo-1,2,3,4-tetrahydroisoquinolin-6-yl)oxy]pyridine-2-carbonitrile] was tested, and the Ki was < 0.01 µM.

In the case of `N#Cc1ccc2c(ccn2-c2ccc3c(c2)CCN(CCN2CCCC2)C3=O)c1` [Example 35, 1-[1-oxo-2-(2-pyrrolidin-1-ylethyl)-1,2,3,4-tetrahydroisoquinolin-6-yl]-1H-indole-5-carbonitrile Hydrochloride], the Ki is reported as < 0.01 µM.

For `C[C@@H]1CCCN1CCN1CCc2cc(-c3ccc(C(=O)NC4CCCC4)cc3)ccc2C1=O` [Example 80, N-cyclopentyl-4-(2-{2-[(2R)-2-methylpyrrolidin-1-yl]ethyl}-1-oxo-1,2,3,4-tetrahydroisoquinolin-6-yl)benzamide], the Ki was < 0.01 µM.

With `C[C@@H]1CCCN1CCN1CCc2cc(N3CCCCC3)ccc2C1=O` [Example 161, 2-{2-[(2R)-2-methylpyrrolidin-1-yl]ethyl}-6-piperidin-1-yl-3,4-dihydroisoquinolin-1(2H)-one] the Ki was < 0.01 µM.

In the case of `N#Cc1cccc(-c2ccc3c(c2)CCN(CCCN2CCCC2)C3=O)c1` [Example 33, 3-[1-oxo-2-(3-pyrrolidin-1-ylpropyl)-1,2,3,4-tetrahydroisoquinolin-6-yl]benzonitrile], the Ki is reported as 0.0251 to 0.05 µM.

`C[C@@H]1CCCN1CCN1CCc2cc(C(=O)N3CCCCC3)ccc2C1=O` [Example 146, 2-{2-[(2R)-2-methylpyrrolidin-1-yl]ethyl}-6-(piperidin-1-ylcarbonyl)-3,4-dihydroisoquinolin-1(2H)-one] was tested, and the Ki was < 0.01 µM.

With `O=C1c2ccc(-c3ccc(OC(F)(F)F)cc3)cc2CCN1CCN1CCCC1` [Example 14, 2-(2-pyrrolidin-1-ylethyl)-6-[4-(trifluoromethoxy)phenyl]-3,4-dihydroisoquinolin-1(2H)-one] the Ki was 0.0101 to 0.025 µM.

With `CNC(=O)c1ccc(-c2ccc3c(c2)CCN(CCN2CCC[C@H]2C)C3=O)cc1` [Example 78, N-methyl-4-(2-{2-[(2R)-2-methylpyrrolidin-1-yl]ethyl}-1-oxo-1,2,3,4-tetrahydroisoquinolin-6-yl)benzamide] the Ki was < 0.01 µM.

With `C[C@@H]1CCCN1CCN1CCc2cc(C(=O)N3CCCC3)ccc2C1=O` [Example 151, 2-{2-[(2R)-2-methylpyrrolidin-1-yl]ethyl}-6-(pyrrolidin-1-ylcarbonyl)-3,4-dihydroisoquinolin-1(2H)-one] the Ki was < 0.01 µM.

For `CCNC(=O)c1ccc(-c2ccc3c(c2)C(=O)N(CCN2CCC[C@H]2C)CC3)cc1` [Example 84, N-ethyl-4-(2-{2-[(2R)-2-methylpyrrolidin-1-yl]ethyl}-1-oxo-1,2,3,4-tetrahydroiso-quinolin-7-yl)benzamide], the Ki was < 0.01 µM.

`O=C(c1ccc(-c2ccc3c(c2)CCN(CCN2CCCC2)C3=O)cc1)N1CCCC1` [Example 54, 6-[4-(pyrrolidin-1-ylcarbonyl)phenyl]-2-(2-pyrrolidin-1-ylethyl)-3,4-dihydroisoquinolin-1(2H)-one hydrochloride] was tested, and the Ki was < 0.01 µM.

For `C[C@@H]1CCCN1CCN1CCc2cc(OCc3ccc(C#N)cc3)ccc2C1=O` [Example 120, (R)-4-((2-(2-(2-Methylpyrrolidin-1-yl)ethyl)-1-oxo-1,2,3,4-tetra-hydroisoquinolin-6-yloxy)methyl)benzonitrile hydrochloride], the Ki was < 0.01 µM.

With `CCNC(=O)c1ccc(-c2ccc3c(c2)CCN(CCN2CCCC2)C3)cc1` [Example 182, N-ethyl-4-[2-(2-pyrrolidin-1-ylethyl)-1,2,3,4-tetrahydroisoquinolin-6-yl]benzamide] the Ki was < 0.01 µM.

With `COC(=O)c1ccc(-c2ccc3c(c2)CCN(CCN2CCC[C@H]2C)C3=O)cc1` [Example 25, methyl 4-(2-{2-[(2R)-2-methylpyrrolidin-1-yl]ethyl}-1-oxo-1,2,3,4-tetrahydroiso-quinolin-6-yl)benzoate] the Ki (membranes of stably transfected HEK293T cells, methyl histamine radioligand 1 nM, one hour incubation at 30° C., Ki from IC50 by Cheng-Prusoff) was < 0.01 µM.

For `O=C1c2ccc(-c3cc(F)cc(F)c3)cc2CCN1CCN1CCCC1` [Example 10, 6-(3,5-difluorophenyl)-2-(2-pyrrolidin-1-ylethyl)-3,4-dihydroisoquinolin-1(2H)-one], the Ki was < 0.01 µM.

With `C[C@@H]1CCCN1CCN1CCc2cc(-c3ccc(F)cc3)ccc2C1=O` [Example 40, 6-(4-fluorophenyl)-2-{2-[(2R)-2-methylpyrrolidin-1-yl]ethyl}-3,4-dihydroisoquinolin-1(2H)-one] the Ki was < 0.01 µM.

For `O=C(c1ccc(-c2ccc3c(c2)CCN(CCN2CCCC2)C3)cc1)N1CCCC1` [Example 184, 6-[4-(pyrrolidin-1-ylcarbonyl)phenyl]-2-(2-pyrrolidin-1-ylethyl)-1,2,3,4-tetrahydroisoquinoline], the Ki was < 0.01 µM.

In the case of `C[C@@H]1CCCN1CCN1CCc2cc(-c3ccc(C(=O)NC4CCC4)cc3)ccc2C1=O` [Example 74, N-cyclobutyl-4-(2-{2-[(2R)-2-methylpyrrolidin-1-yl]ethyl}-1-oxo-1,2,3,4-tetrahydroisoquinolin-6-yl)benzamide], the Ki is reported as < 0.01 µM.

In the case of `CNC(=O)c1ccc(-c2ccc3c(c2)C(=O)N(CCN2CCC[C@H]2C)CC3)cc1` [Example 83, N-methyl-4-(2-{2-[(2R)-2-methylpyrrolidin-1-yl]ethyl}-1-oxo-1,2,3,4-tetrahydroiso-quinolin-7-yl)benzamide], the Ki is reported as < 0.01 µM.

In the case of `C[C@@H]1CCCN1CCN1CCc2cc(-c3ccc(C(=O)NC4CC4)cc3)ccc2C1=O` [Example 76, N-cyclopropyl-4-(2-{2-[(2R)-2-methylpyrrolidin-1-yl]ethyl}-1-oxo-1,2,3,4-tetrahydroisoquinolin-6-yl)benzamide], the Ki is reported as < 0.01 µM.

In the case of `C[C@@H]1CCCN1CCN1CCc2cc(Oc3ccc(C#N)cc3)ccc2C1=O` [Example 49, 4-[(2-{2-[(2R)-2-methylpyrrolidin-1-yl]ethyl}-1-oxo-1,2,3,4-tetrahydroisoquinolin-6-yl)oxy]benzonitrile], the Ki is reported as < 0.01 µM.

Work on `C[C@@H]1CCCN1CCN1CCc2c(cccc2-c2ccc(C#N)cc2)C1=O` [Example 28, 4-(2-{2-[(2R)-2-methylpyrrolidin-1-yl]ethyl}-1-oxo-1,2,3,4-tetrahydroisoquinolin-5-yl)benzonitrile] yielded a Ki of 0.0101 to 0.025 µM.

For `COc1ccc(-c2ccc3c(c2)CCN(CCN2CCCC2)C3=O)cc1` [Example 23, 6-(4-methoxyphenyl)-2-(2-pyrrolidin-1-ylethyl)-3,4-dihydroisoquinolin-1(2H)-one], the Ki was < 0.01 µM.

`O=C1c2ccc(-c3ccc(F)c(F)c3)cc2CCN1CCN1CCCC1` [Example 17, 6-(3,4-difluorophenyl)-2-(2-pyrrolidin-1-ylethyl)-3,4-dihydroisoquinolin-1(2H)-one] was tested, and the Ki was < 0.01 µM.

In the case of `CC(C)OCCNC(=O)c1ccc(-c2ccc3c(c2)CCN(CCN2CCCC2)C3=O)cc1` [Example 70, N-(2-isopropoxyethyl)-4-[1-oxo-2-(2-pyrrolidin-1-ylethyl)-1,2,3,4-tetrahydroisoquinolin-6-yl]benzamide], the Ki is reported as < 0.01 µM.

Molecule `O=C1c2ccc(Cn3cnc4ccccc43)cc2CN1CCN1CCCC1` [Example 112, 5-(1H-benzimidazol-1-ylmethyl)-2-(2-pyrrolidin-1-ylethyl)iso-indolin-1-one] has a Ki of 0.0251 to 0.05 µM.

In the case of `CC(C)NC(=O)c1ccc(-c2ccc3c(c2)C(=O)N(CCN2CCC[C@H]2C)CC3)cc1` [Example 85, N-isopropyl-4-(2-{2-[(2R)-2-methylpyrrolidin-1-yl]ethyl}-1-oxo-1,2,3,4-tetrahydroiso-quinolin-7-yl)benzamide], the Ki is reported as < 0.01 µM.

For `N#Cc1ccc(Oc2ccc3c(c2)CCN(CCN2CCCC2)C3=O)cc1` [Example 50, 4-{[1-oxo-2-(2-pyrrolidin-1-ylethyl)-1,2,3,4-tetrahydroisoquinolin-6-yl]oxy}benzonitrile], the Ki was < 0.01 µM.

`C[C@@H]1CCCN1C(=O)c1ccc(-c2ccc3c(c2)CCN(CCN2CCCC2)C3=O)cc1` [Example 82, 6-(4-{[(2R)-2-methylpyrrolidin-1-yl]carbonyl}phenyl)-2-(2-pyrrolidin-1-ylethyl)-3,4-dihydroisoquinolin-1(2H)-one] was tested, and the Ki was < 0.01 µM.
